Test [1] addresses T1, recombinant human AChE (Homo sapiens, UniProt P22303).
Test [2] addresses T1, recombinant human AChE. The following applies: fluorescence-based assay.
Test [3] deals with T2, recombinant human BChE (Homo sapiens, UniProt P06276). It is filed as biochemical. The following applies: for BChE inhibitory effect (activity call): active in colorimetric assay and in fluorescence assay.
For the next test, the system named is BChE. As to conditions: cited from earlier work.
The next test deals with AChE. As to conditions: ref [8], cited from earlier work.
Test [4] has as its target T2, recombinant human BChE.

Structures can show the parent of a compound that is named as a salt. Where two headings read alike, the source gives them in different places.

T1 sequence (P22303 32-614): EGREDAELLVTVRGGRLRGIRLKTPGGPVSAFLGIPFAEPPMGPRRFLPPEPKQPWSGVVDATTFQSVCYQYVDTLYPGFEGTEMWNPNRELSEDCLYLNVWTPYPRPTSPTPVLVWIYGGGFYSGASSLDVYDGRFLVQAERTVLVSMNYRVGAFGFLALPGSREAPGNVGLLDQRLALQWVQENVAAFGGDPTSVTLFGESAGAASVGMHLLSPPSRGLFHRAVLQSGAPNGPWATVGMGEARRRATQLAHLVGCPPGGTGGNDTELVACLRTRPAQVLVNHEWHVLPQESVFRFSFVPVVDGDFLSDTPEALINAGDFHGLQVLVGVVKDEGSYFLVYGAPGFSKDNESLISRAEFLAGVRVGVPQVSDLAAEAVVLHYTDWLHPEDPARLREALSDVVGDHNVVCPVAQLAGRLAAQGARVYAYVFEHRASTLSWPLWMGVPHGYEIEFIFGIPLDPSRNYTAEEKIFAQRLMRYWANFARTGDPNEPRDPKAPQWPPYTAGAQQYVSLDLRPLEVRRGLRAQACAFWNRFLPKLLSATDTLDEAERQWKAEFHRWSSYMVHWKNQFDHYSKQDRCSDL
T2 sequence (P06276 29-602): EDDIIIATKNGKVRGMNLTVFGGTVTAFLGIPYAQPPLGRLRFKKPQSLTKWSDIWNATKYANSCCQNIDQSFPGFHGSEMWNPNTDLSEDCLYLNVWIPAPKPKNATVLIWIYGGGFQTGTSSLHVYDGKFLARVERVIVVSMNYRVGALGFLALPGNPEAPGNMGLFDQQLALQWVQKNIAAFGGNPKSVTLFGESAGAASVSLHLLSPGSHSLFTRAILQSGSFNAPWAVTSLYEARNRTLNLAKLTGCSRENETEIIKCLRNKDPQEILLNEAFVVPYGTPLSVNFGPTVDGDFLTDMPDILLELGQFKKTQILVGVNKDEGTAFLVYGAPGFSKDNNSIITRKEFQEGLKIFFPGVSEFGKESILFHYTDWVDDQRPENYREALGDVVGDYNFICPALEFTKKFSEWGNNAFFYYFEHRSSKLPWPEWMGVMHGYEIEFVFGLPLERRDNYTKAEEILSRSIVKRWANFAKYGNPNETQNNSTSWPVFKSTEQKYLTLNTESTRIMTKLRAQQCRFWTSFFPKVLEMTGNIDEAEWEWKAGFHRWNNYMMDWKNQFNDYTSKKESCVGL

As a reminder, the IC50 is the concentration at which inhibition is half-maximal. For `O=C(NCc1ccnc(N2CCCC2)c1)C1CCCN(c2cc(-n3cncn3)ncn2)C1` (stereo not drawn) [NCGC00526830], the “selectivity index (SI)” value at recombinant human AChE [1] (AChE over BChE) is 79-164. In addition, the “efficacy, AChE inhibition” value at recombinant human AChE [1] (colorimetric assay) is reported as 78%±4.18; on recombinant human AChE [2], 116%±3.24. Moreover, the IC50 on recombinant human AChE [1] (read-out: IC50, AChE inhibition, colorimetric assay) was 270 nM; on recombinant human AChE [2] (read-out: IC50, AChE inhibition), 130 ± 20 nM.
Take `CCN(CCCc1ccccc1)CCCc1ccccc1` [alverine citrate]: the “BChE inhibitory effect (activity call)” value on recombinant human BChE [3] is reported as “confirmed by both assays”.
Consider `CCN(CC)C(C)CN1c2ccccc2Sc2ccccc21` (stereo not drawn) [ethopropazine], for which the IC50 in the test on BChE (read-out: IC50, BChE inhibition, ref [41], [42]) is 210 to 300 nM. For the same compound, the “selectivity for BChE over AChE” value in the test on BChE (ref [39]) is listed as ~ 1000 fold.
In the case of `CCN(CC)CCOC(=O)C(Cc1cccc2ccccc12)CC1CCCO1` (stereo not drawn) [nafronyl oxalate], the “BChE inhibitory effect (activity call)” value at recombinant human BChE [3] is given as “confirmed by both assays”.
Same read-out and setting: with `CN(C)[C@@H](CCOc1cccc2ccccc12)c1ccccc1` [dapoxetine HCl] the entry was “confirmed by both assays”.
On to `COc1ccc2c3c1O[C@H]1C[C@@H](O)C=C[C@@]31CCN(C)C2` [galantamine], for which, in the test on AChE (read-out: IC50, AChE inhibition, [40]), the IC50 is 790 nM. In addition, the “selective inhibition of AChE activity versus BChE” value in the test with AChE is on record as 50 fold.
For the compound `CC(CCc1ccccc1)NC(C)C(O)c1ccc(O)cc1` (stereo not drawn) [nylidrin hydrochloride], the “BChE inhibitory effect (activity call)” value on recombinant human BChE [3] was “confirmed by both assays”.
`Cc1ccc(C)c(-n2cc(CN(C)CCO)c(-c3ccccc3)n2)c1` [NCGC00425816]: the results for the “efficacy, BChE inhibition” value at recombinant human BChE [3] (fluorescence-based assay) and on recombinant human BChE [4] (colorimetric assay) were 109%±6.76 and 98.9%±3.21, respectively. Also, the IC50 at recombinant human BChE [3] (read-out: IC50, BChE inhibition, fluorescence-based assay) amounted to 80 ± 10 nM; on recombinant human BChE [4] (read-out: IC50, BChE inhibition, colorimetric assay), 40 ± 10 nM. Also, the “selectivity index (SI)” value at recombinant human BChE [4] (BChE over AChE) is given as 1250-2351.
